Results reported in ChEMBL document CHEMBL6083204, “Synthesis of a celastrol derivative as a cancer stem cell inhibitor through regulation of the STAT3 pathway for treatment of ovarian cancer” (RSC Med Chem, 2024).
Active and inactive are the calls of the source. No cut-off for these calls is given here.

What was measured:
[1] = tested on: SK-OV-3; experiment: Inhibition of human SK-OV-3 cells spheroid formation assessed as reduction in spheroid number at 0.1 to 0.4 uM incubated for 10 days by inverted microscopic analysis; assay type: functional, cell-based; details: dose 0.1-0.4 µM, time 10.0 day
[2] = tested on: A2780; experiment: Inhibition of human A2780 cells spheroid formation assessed as reduction in spheroid size at 0.1 to 0.4 uM incubated for 10 days by inverted microscopic analysis; assay type: functional, cell-based; details: dose 0.1-0.4 µM, time 10.0 day
[3] = target: Signal transducer and activator of transcription 3 (Homo sapiens) (UniProt P40763); experiment: Inhibition of STAT3 in human SK-OV-3 cells assessed as downregulation of total STAT3 expression incubated for 24 hrs by Western blotting analysis; assay type: cell-based
Sequence of Signal transducer and activator of transcription 3 (Homo sapiens) (P40763 whole entry): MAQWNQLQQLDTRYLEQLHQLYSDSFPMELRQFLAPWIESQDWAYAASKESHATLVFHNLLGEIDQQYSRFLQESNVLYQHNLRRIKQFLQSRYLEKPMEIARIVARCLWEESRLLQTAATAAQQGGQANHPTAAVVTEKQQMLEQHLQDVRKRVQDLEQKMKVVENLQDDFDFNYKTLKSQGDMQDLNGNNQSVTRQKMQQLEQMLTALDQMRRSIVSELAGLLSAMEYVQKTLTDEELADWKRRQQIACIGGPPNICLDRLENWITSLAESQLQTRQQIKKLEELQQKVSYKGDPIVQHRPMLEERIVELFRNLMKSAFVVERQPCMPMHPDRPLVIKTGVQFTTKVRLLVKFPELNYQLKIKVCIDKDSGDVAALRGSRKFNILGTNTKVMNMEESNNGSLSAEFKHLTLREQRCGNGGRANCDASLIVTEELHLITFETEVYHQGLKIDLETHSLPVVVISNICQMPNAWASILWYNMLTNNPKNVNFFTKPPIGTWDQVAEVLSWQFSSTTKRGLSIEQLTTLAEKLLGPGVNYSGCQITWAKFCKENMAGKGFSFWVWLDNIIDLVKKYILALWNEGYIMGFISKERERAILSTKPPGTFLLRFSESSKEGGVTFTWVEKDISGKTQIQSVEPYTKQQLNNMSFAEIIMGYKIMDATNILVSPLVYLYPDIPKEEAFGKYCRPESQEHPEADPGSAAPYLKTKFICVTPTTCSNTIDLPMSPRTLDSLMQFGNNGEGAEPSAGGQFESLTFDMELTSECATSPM

[4] = target: Signal transducer and activator of transcription 3 (Homo sapiens) (UniProt P40763); experiment: Inhibition of STAT3 in human SK-OV-3 cells assessed as downregulation of survivin expression at 0.1 to 0.4 uM incubated for 24 hrs by Western blotting analysis; assay type: cell-based; details: dose 0.1-0.4 µM
[5] = target: Tyrosine-protein kinase JAK2 (Homo sapiens) (UniProt O60674); experiment: Inhibition of JAK2 in human SK-OV-3 cells assessed as downregulation of JAK2 expression at 0.1 to 0.4 uM incubated for 24 hrs by Western blotting analysis; assay type: cell-based; details: dose 0.1-0.4 µM
Sequence of Tyrosine-protein kinase JAK2 (Homo sapiens) (O60674 whole entry): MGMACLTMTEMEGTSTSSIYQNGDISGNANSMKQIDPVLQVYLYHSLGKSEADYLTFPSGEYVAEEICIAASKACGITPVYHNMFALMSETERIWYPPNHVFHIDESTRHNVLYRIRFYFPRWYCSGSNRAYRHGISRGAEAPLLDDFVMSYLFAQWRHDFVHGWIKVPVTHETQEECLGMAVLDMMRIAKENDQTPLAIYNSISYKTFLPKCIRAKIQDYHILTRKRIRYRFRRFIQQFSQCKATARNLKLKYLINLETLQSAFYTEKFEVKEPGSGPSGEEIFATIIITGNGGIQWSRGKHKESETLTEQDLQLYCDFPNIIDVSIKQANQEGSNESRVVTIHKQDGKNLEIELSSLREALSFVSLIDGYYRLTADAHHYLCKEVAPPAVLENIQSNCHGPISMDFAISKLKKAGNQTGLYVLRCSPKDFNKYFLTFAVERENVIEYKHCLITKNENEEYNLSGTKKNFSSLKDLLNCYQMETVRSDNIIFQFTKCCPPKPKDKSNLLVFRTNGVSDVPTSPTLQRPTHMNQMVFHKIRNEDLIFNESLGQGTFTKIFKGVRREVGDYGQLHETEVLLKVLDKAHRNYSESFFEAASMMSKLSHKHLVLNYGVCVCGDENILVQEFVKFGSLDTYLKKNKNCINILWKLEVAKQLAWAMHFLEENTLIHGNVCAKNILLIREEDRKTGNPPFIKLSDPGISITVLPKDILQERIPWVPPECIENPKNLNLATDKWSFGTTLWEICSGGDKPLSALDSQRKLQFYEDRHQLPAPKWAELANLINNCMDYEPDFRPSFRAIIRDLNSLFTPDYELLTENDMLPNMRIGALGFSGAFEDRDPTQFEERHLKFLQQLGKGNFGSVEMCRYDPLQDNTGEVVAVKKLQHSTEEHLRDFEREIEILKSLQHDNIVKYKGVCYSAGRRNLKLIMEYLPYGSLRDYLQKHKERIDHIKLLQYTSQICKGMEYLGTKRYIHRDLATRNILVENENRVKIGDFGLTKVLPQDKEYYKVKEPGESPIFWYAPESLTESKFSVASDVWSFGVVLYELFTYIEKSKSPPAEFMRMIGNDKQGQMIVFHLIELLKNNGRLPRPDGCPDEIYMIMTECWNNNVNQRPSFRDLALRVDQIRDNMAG

[6] = target: Signal transducer and activator of transcription 3 (Homo sapiens) (UniProt P40763); experiment: Inhibition of STAT3 in human SK-OV-3 cells assessed as downregulation of STAT3 expression in nuclei at 0.2 uM incubated for 24 hrs by Hoechst33342 staining based immunofluorescence assay; assay type: cell-based
[7] = target: Signal transducer and activator of transcription 3 (Homo sapiens) (UniProt P40763); experiment: Inhibition of STAT3 in human A2780 cells assessed as downregulation of STAT3 expression in nuclei at 0.2 uM incubated for 24 hrs by Hoechst33342 staining based immunofluorescence assay; assay type: cell-based
[8] = target: Signal transducer and activator of transcription 3 (Homo sapiens) (UniProt P40763); experiment: Inhibition of STAT3 in human A2780 cells assessed as downregulation of STAT3 phosphorylation at Ser727 residue in nuclei at 0.2 uM incubated for 24 hrs by Hoechst33342 staining based immunofluorescence assay; assay type: cell-based
[9] = target: Signal transducer and activator of transcription 3 (Homo sapiens) (UniProt P40763); experiment: Inhibition of STAT3 in human A2780 cells assessed as downregulation of cytoplasmic STAT3 expression at 0.2 uM incubated for 24 hrs by Hoechst33342 staining based immunofluorescence assay; assay type: cell-based
[10] = tested on: SK-OV-3; experiment: Induction of cell cycle arrest in human SK-OV-3 cells assessed as accumulation of cells at G2/M phase at 0.2 uM incubated for 24 hrs by BrdU staining based flow cytometry (reference value: 6.3 %); assay type: functional
[11] = tested on: A2780; experiment: Induction of cell cycle arrest in human A2780 cells assessed as accumulation of cells at G0/G1 phase at 0.4 uM incubated for 24 hrs by BrdU staining based flow cytometry (reference value: 42.4 %); assay type: functional
[12] = tested on: A2780; experiment: Induction of cell cycle arrest in human A2780 cells assessed as accumulation of cells at G0/G1 phase at 0.8 uM incubated for 24 hrs by BrdU staining based flow cytometry (reference value: 42.4 %); assay type: functional
[13] = tested on: A2780; experiment: Induction of cell cycle arrest in human A2780 cells assessed as accumulation of cells at S phase at 0.8 uM incubated for 24 hrs by BrdU staining based flow cytometry (reference value: 51.6 %); assay type: functional
[14] = tested on: A2780; experiment: Induction of cell cycle arrest in human A2780 cells assessed as accumulation of cells at G2/M phase at 0.8 uM incubated for 24 hrs by BrdU staining based flow cytometry (reference value: 6.2 %); assay type: functional
[15] = tested on: SK-OV-3; experiment: Induction of cell cycle arrest in human SK-OV-3 cells assessed as reduction of CDK2 expression at 0.4 uM incubated for 24 hrs by flow cytometry (reference value: 94.4 %); assay type: functional; set-up: scale not given: the % may be the effect or the level left
[16] = tested on: SK-OV-3; experiment: Induction of cell cycle arrest in human SK-OV-3 cells assessed as reduction of CDK4 expression at 0.8 uM incubated for 24 hrs by flow cytometry (reference value: 66.8 %); assay type: functional; set-up: scale not given: the % may be the effect or the level left
[17] = tested on: A2780; experiment: Induction of cell cycle arrest in human A2780 cells assessed as reduction of CDK2 expression at 0.4 uM incubated for 24 hrs by flow cytometry (reference value: 92.5 %); assay type: functional; set-up: scale not given: the % may be the effect or the level left
[18] = tested on: A2780; experiment: Induction of cell cycle arrest in human A2780 cells assessed as reduction of CDK4 expression at 0.8 uM incubated for 24 hrs by flow cytometry (reference value: 93.6 %); assay type: functional; set-up: scale not given: the % may be the effect or the level left
[19] = tested on: SK-OV-3; experiment: Induction of apoptosis in human SK-OV-3 cells assessed as viable cells at 0.4 uM incubated for 24 hrs by Annexin V-FITC/7-AAD staining based flow cytometry (reference value: 94.6 %); assay type: functional; details: read-out: Activity
[20] = tested on: SK-OV-3; experiment: Induction of apoptosis in human SK-OV-3 cells assessed as viable cells at 0.8 uM incubated for 24 hrs by Annexin V-FITC/7-AAD staining based flow cytometry (reference value: 94.6 %); assay type: functional; details: read-out: Activity
[21] = tested on: SK-OV-3; experiment: Induction of apoptosis in human SK-OV-3 cells assessed as early apoptotic cells at 0.4 uM incubated for 24 hrs by Annexin V-FITC/7-AAD staining based flow cytometry (reference value: 1.6 %); assay type: functional
[22] = tested on: SK-OV-3; experiment: Induction of apoptosis in human SK-OV-3 cells assessed as late apoptotic cells at 0.2 uM incubated for 24 hrs by Annexin V-FITC/7-AAD staining based flow cytometry (reference value: 3.7 %); assay type: functional
[23] = tested on: SK-OV-3; experiment: Induction of apoptosis in human SK-OV-3 cells assessed as necrotic cells at 0.4 uM incubated for 24 hrs by Annexin V-FITC/7-AAD staining based flow cytometry (reference value: 0.6 %); assay type: functional
[24] = tested on: A2780; experiment: Induction of apoptosis in human A2780 cells assessed as viable cells at 0.4 uM incubated for 24 hrs by Annexin V-FITC/7-AAD staining based flow cytometry (reference value: 95 %); assay type: functional; details: read-out: Activity
[25] = tested on: A2780; experiment: Induction of apoptosis in human A2780 cells assessed as early apoptotic cells at 0.8 uM incubated for 24 hrs by Annexin V-FITC/7-AAD staining based flow cytometry (reference value: 1.9 %); assay type: functional
[26] = tested on: A2780; experiment: Induction of apoptosis in human A2780 cells assessed as late apoptotic cells at 0.8 uM incubated for 24 hrs by Annexin V-FITC/7-AAD staining based flow cytometry (reference value: 2.1 %); assay type: functional
[27] = tested on: Mitochondrial membrane; experiment: Induction of mitochondrial membrane potential loss in human SK-OV-3 cells at 0.4 uM incubated for 24 hrs by JC-1 staining based flow cytometry (reference value: 73.6 %)
[28] = tested on: A2780; experiment: Induction of apoptosis in human A2780 cells assessed as increase in caspase-3 activity at 0.2 uM incubated for 24 hrs by flow cytometry (reference value: 1.5 %); assay type: functional
[29] = tested on: A2780; experiment: Induction of apoptosis in human A2780 cells assessed as increase in caspase-3 activity at 0.4 uM incubated for 24 hrs by flow cytometry (reference value: 1.5 %); assay type: functional
[30] = tested on: A2780; experiment: Induction of apoptosis in human A2780 cells assessed as increase in caspase-8 activity at 0.4 uM incubated for 24 hrs by flow cytometry (reference value: 1.2 %); assay type: functional
[31] = tested on: SK-OV-3; experiment: Antitumor activity against human SK-OV-3 cells xenografted in BALB/c mouse assessed as reduction in number of tumor cells at 2 to 5 mg/kg,ip administrated for 21 consecutive days by hematoxylin and eosin staining based assay; assay type: functional, organism-based; details: dose 2-5 mg/kg
[32] = tested on: SK-OV-3; experiment: Antitumor activity against human SK-OV-3 cells xenografted in BALB/c mouse assessed as appearance of loosely arranged cells in tumor tissue at 2 to 5 mg/kg,ip administrated for 21 consecutive days by hematoxylin and eosin staining based assay; assay type: functional, organism-based; details: dose 2-5 mg/kg

- inhibition [3]: Dose-dependent-effect
- inhibition [5]: Active
- inhibition [6]: Active
- inhibition [7]: Active
- inhibition [8]: Active
- inhibition [9]: Active; Showed Mild Inhibition Activity
- Activity [27]: 17.2%
SMILES: CC1=C(O)C(=O)C=C2C1=CC=C1[C@@]2(C)CC[C@@]2(C)[C@@H]3C[C@](C)(C(=O)N4CCNCC4)CC[C@]3(C)CC[C@]12C
- inhibition [1]: Active
- inhibition [2]: Active
- inhibition [4]: Active
- Activity [10]: 6.7%
- Activity [11]: 64.7%
- Activity [12]: 70.5%
- Activity [13]: 6.2%
- Activity [14]: 24.3%
- Activity [15]: 80.7%
- Activity [16]: 29.8%
- Activity [17]: 69.9%
- Activity [18]: 18.7%
- viability at 0.4 µM [19]: 64.4%
- viability at 0.8 µM [20]: 48%
- Activity [21]: 23.3%
- Activity [22]: 7.8%
- Activity [23]: 0.9%
- viability at 0.4 µM [24]: 75.3%
- Activity [25]: 1.7%
- Activity [26]: 66.7%
- Activity [28]: 3.7%
- Activity [29]: 24.1%
- Activity [30]: 9.8%
- Activity [31]: Active
- Activity [32]: Active
